Several values for one entry are separate records, joined by “and”; a condition that tells them apart may be missing. Equal entries are not always repeated.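 Tested at 5 concentrations; 48 h exposure; 96-well plates; endpoints linearly interpolated, else capped at highest concentration. At the GI50, growth is halved. Definition used: TGI = concentration required for complete inhibition of growth.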
Assays:
Experiment in all cases: NCI tumour cell line growth inhibition, 48 h
P388 leukemia = tested on: P388 leukemia
P388/ADR leukemia = tested on: P388/ADR leukemia
HOP-18 NSCLC = tested on: HOP-18 NSCLC
DMS 114 small cell lung = tested on: DMS 114 small cell lung
M19-MEL melanoma = tested on: M19-MEL melanoma
SN12K1 renal = tested on: SN12K1 renal
RXF-631 renal = tested on: RXF-631 renal
DLD-1 colon = tested on: DLD-1 colon
MDA-N = tested on: MDA-N
BT-549 breast = tested on: BT-549 breast
DU-145 prostate = tested on: DU-145 prostate

For `COc1cc(Cc2nccc3cc(OC)c(OC)cc23)c(C(C)=O)cc1OC`, the TGI (P388 leukemia) was 119 µM, the TGI (P388/ADR leukemia) was 30 µM and the GI50 (HOP-18 NSCLC) was 115 µM. The TGI (HOP-18 NSCLC) was > 300 µM and 252 µM, the GI50 (DMS 114 small cell lung) was 3.02 µM and the TGI (DMS 114 small cell lung) was 300 µM and 164 µM. For the same molecule, the GI50 (M19-MEL melanoma) was over 750 µM, the TGI (M19-MEL melanoma) was 223 µM and > 750 µM and the TGI (SN12K1 renal) was 300 µM. The TGI (RXF-631 renal) was over 750 µM, the GI50 (DLD-1 colon) was 118 µM and the TGI (DLD-1 colon) was 169 µM and 351 µM.
Molecule `CCCCCCCCCCCCCCCC(=O)OCC(C[As](=O)(O)O)OC(=O)CCCCCCCCCCCCCCC` (configuration not stated) has a TGI (HOP-18 NSCLC) of over 100 µM, a TGI (MDA-N) of over 100 µM and a TGI (DMS 114 small cell lung) of over 100 µM. For the same molecule, the TGI (M19-MEL melanoma) was over 100 µM, the TGI (RXF-631 renal) was over 100 µM and the TGI (DLD-1 colon) was over 100 µM. It also gave a TGI (BT-549 breast) of over 100 µM.
`CCOC(=O)C(=O)Nc1ccccc1CC` was tested, and the TGI (HOP-18 NSCLC) was over 100 µM, the TGI (DMS 114 small cell lung) was over 100 µM and the TGI (M19-MEL melanoma) was over 100 µM. It also gave a TGI (RXF-631 renal) of over 100 µM and a TGI (DLD-1 colon) of over 100 µM.
In the case of `CCOC(=O)CCC(=O)C1c2cccc(O)c2C(=O)c2c(O)cc(C)cc21` (configuration not stated), the TGI (HOP-18 NSCLC) is reported as 1.33 µM, the TGI (DMS 114 small cell lung) is reported as 0.8 µM and the TGI (M19-MEL melanoma) is reported as 1.31 µM. The TGI (RXF-631 renal) was 1.65 µM and the TGI (DLD-1 colon) was 3.58 µM.
For `CCOC(=O)N[C@@H]1C(CC(=O)OC)O[C@H]2OC(C)(C)O[C@H]21` (some centres not stated), the TGI (HOP-18 NSCLC) was over 100 µM, the TGI (DMS 114 small cell lung) was over 100 µM and the TGI (M19-MEL melanoma) was over 100 µM. The TGI (RXF-631 renal) was over 100 µM and the TGI (DLD-1 colon) was over 100 µM.
In the case of `CC(=O)O[C@H]1CCC2[C@@H]3CC[C@]4(C)CC(=O)C=C[C@]4(C)C3CC[C@@]21C` (some centres not stated), the TGI (HOP-18 NSCLC) is reported as over 53.7 µM, the TGI (MDA-N) is reported as 74.7 µM and the TGI (DMS 114 small cell lung) is reported as 24.2 µM. For the same molecule, the TGI (M19-MEL melanoma) was 34.7 µM, the TGI (DU-145 prostate) was over 100 µM and the TGI (RXF-631 renal) was over 100 µM. The TGI (DLD-1 colon) was 56.9 µM and the TGI (BT-549 breast) was 32.1 µM.

— PubChem BioAssay (NCI)
